Data reported in ChEMBL document CHEMBL4251653, “In vivo potent BM635 analogue with improved drug-like properties” (Eur J Med Chem, 2018).
In brackets after ≈: the same amount, converted by molar mass.

Key:
[1] = test system: Mycobacterium tuberculosis; experiment: microbe, parasite or virus in culture; details: 144 h
Description: Antitubercular activity against Mycobacterium tuberculosis after 6 days by resazurin-based fluorescence assay

[2] = Cytotoxicity against human HepG2 cells incubated for 48 hrs by Cell-titer Glo assay; type: cell-based; details: read-out: TC50
in vitro = details: human, HepG2 cells
Description: Selectivity index, ratio of TC50 for human HepG2 cells to MIC for Mycobacterium tuberculosis

Albumin = Albumin (Homo sapiens, UniProt P02768); experiment: Binding affinity to human serum albumin; type: ADME; details: isolated protein
Sequence of Albumin (P02768 whole entry): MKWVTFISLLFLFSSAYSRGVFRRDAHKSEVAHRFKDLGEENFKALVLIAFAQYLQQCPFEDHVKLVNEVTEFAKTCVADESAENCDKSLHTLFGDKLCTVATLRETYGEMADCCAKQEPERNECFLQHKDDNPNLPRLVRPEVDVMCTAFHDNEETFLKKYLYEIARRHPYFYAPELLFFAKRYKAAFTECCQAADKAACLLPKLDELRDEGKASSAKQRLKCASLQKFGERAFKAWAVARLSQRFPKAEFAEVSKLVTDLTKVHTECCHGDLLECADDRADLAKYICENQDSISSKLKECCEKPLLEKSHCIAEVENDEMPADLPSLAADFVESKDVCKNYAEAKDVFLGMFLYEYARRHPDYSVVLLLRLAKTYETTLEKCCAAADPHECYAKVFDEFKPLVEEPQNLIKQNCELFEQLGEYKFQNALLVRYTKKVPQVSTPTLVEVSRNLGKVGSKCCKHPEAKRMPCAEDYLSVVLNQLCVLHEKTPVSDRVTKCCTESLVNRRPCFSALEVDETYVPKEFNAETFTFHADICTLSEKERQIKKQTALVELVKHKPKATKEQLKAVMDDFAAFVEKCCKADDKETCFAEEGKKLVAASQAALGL

[3] = test system: Mycobacterium tuberculosis; experiment: microbe, parasite or virus in culture; details: H37Rv, THP-1, 96 h
Description: Antitubercular activity against Mycobacterium tuberculosis H37Rv infected in human THP1 macrophages incubated for 4 days by luciferase reporter gene assay

[4] = Permeability of the compound by artificial membrane permeability assay; type: ADME; details: PAMPA; read-out: permeability
[5] = Kinetic solubility in pH 7.4 phosphate buffered saline incubated for 1 hr by chemiluminescent nitrogen detection method; type: physicochemical; details: read-out: Kinetic_solubility
[6] = target: Voltage-gated inwardly rectifying potassium channel KCNH2 (Homo sapiens, UniProt Q12809); experiment: Inhibition of human ERG by [3H]dofetilide binding displacement assay
Sequence of Voltage-gated inwardly rectifying potassium channel KCNH2 (Q12809 whole entry): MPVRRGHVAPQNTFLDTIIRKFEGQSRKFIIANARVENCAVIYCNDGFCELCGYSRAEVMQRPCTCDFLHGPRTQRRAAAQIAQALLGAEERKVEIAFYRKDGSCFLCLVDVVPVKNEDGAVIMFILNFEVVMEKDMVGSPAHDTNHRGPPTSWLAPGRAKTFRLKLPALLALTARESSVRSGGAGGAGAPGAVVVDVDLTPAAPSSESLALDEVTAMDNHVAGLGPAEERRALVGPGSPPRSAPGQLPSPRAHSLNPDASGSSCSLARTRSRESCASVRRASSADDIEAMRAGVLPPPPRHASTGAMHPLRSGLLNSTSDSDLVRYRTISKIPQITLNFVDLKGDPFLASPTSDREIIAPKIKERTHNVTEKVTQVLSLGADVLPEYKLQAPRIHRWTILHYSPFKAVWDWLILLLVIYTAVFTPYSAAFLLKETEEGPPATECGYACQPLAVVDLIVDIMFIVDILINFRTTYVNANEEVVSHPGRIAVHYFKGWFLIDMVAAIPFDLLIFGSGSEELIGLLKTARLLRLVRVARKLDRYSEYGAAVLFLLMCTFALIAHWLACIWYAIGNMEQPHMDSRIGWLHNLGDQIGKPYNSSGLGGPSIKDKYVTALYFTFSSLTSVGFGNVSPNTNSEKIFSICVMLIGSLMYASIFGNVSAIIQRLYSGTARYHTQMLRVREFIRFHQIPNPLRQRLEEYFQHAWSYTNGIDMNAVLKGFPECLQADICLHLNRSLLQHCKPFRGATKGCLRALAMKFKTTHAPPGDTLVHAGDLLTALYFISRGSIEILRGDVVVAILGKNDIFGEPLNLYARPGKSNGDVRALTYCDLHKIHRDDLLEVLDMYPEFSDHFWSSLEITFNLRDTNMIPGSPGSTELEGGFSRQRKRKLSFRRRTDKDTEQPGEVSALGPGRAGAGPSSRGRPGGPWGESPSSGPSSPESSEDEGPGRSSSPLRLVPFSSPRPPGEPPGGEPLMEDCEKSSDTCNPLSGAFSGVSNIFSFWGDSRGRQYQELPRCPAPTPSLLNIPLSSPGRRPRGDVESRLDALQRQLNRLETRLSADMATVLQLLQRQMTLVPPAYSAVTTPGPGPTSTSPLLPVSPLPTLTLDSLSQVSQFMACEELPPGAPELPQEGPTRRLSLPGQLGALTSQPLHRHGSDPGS

[7] = Lipophilicity, log D of the compound at pH 7.4 by UV-HPLC method; type: physicochemical; details: buffer, read-out: logD
HepG2 [8] = experiment: Cytotoxicity against human HepG2 cells assessed as compound concentration causing changes in nuclear morphology by Cell Health assay; type: cell-based
HepG2 [9] = experiment: Cytotoxicity against human HepG2 cells assessed as compound concentration causing changes in mitochondrial potential by Cell Health assay; type: cell-based
HepG2 [10] = experiment: Cytotoxicity against human HepG2 cells assessed as compound concentration causing changes in membrane permeability by Cell Health assay; type: cell-based

Row | Structure (SMILES) | MIC [1] [µM] | CC50 at 48 h [2] [µM] | IC50 [3] [µM] | also measured
1 | COc1ccc(-c2cc(CN3CCOCC3)c(C)n2C(C)C)cc1 | 2.5 (≈ 0.821 µg/mL) |  |  | 
2 | Cc1c(CN2CCOCC2)cc(-c2ccc(C(C)C)cc2)n1C1CCCC(O)C1 (configuration not stated) | > 40 | 20 |  | 
3 | Cc1c(CN2CCOCC2)cc(-c2ccc(C(C)C)cc2)n1Cc1ccc(F)cc1 | 0.08 (≈ 0.0325 µg/mL) | 20 | 0.16 | selectivity ratio (in vitro): 250; Activity (Albumin): 98.47%; Papp [4]: 30 ×10⁻⁶ cm/s; solubility kinetic at 1 h [5]: 11 µM (≈ 4.47 µg/mL); IC50 [6]: 5 µM; logD [7]: 8.2
4 | Cc1c(CN2CCOCC2)cc(-c2ccc(C(F)(F)F)cc2)n1C1CCC1 | 1.25 (≈ 0.473 µg/mL) | 20 |  | selectivity ratio (in vitro): 67
5 | Cc1[nH]c(-c2ccc(C(C)C)cc2)cc1CN1CCOCC1 | 12.5 (≈ 3.73 µg/mL) | 1.6 | > 10 | 
6 | Cc1c(CN2CCOCC2)cc(-c2ccc(C(C)C)cc2)n1CC(C)(C)O | 2.5 (≈ 0.926 µg/mL) | 40 | 2.5 | Activity (HepG2 [8]): 50 µM; Activity (HepG2 [9]): 126 µM; Activity (HepG2 [10]): 100 µM
7 | COCCCn1c(-c2ccc(C(C)C)cc2)cc(CN2CCOCC2)c1C | 1.3 (≈ 0.482 µg/mL) |  | 1.25 | Activity (HepG2 [8]): 32 µM; Activity (HepG2 [9]): 50 µM; Activity (HepG2 [10]): 40 µM
8 | CC(=O)Nc1ccc(-c2cc(CN3CCOCC3)c(C)n2-c2ccc(F)cc2)cc1 | 1.25 (≈ 0.509 µg/mL) | 80 | 3.3 | selectivity ratio (in vitro): 40
9 | Cc1c(CN2CCOCC2)cc(-c2ccc(C(C)C)cc2)n1CC(C)C | 0.2 (≈ 0.0709 µg/mL) | 20 | 0.08 | selectivity ratio (in vitro): 100; Activity (Albumin): 97.12%; Papp [4]: 43 ×10⁻⁶ cm/s; solubility kinetic at 1 h [5]: 47 µM (≈ 16.7 µg/mL); IC50 [6]: 16 µM; logD [7]: 8.46
10 | Cc1c(CN2CCOCC2)cc(-c2ccc(C(C)C)cc2)n1CCCC(=O)O | > 40 | > 100 |  | 
11 | Cc1c(CN2CCOCC2)cc(-c2ccc(C(C)C)cc2)n1-c1ccc(C(=O)O)cc1 | > 40 | > 100 |  | 
12 | Cc1c(CN2CCOCC2)cc(Cc2ccccc2)n1-c1ccc(F)cc1 | > 5 | 10 |  | 
13 | Cc1cc(CN2CCOCC2)c(C)n1-c1ccc(F)cc1 | > 5 | > 100 | > 10 | 
14 | Cc1c(CN2CCOCC2)cc(-c2ccc(C(C)C)cc2)n1[C@@H]1CCCNC1 | > 80 | 16 |  | 
15 | Cc1c(CN2CCOCC2)cc(-c2ccc(C(C)C)cc2)n1CC1CCCO1 (configuration not stated) | 5 (≈ 1.91 µg/mL) | 32 | 5 | Activity (HepG2 [8]): 40 µM; Activity (HepG2 [9]): 63 µM; Activity (HepG2 [10]): 50 µM
16 | Cc1c(CN2CCOCC2)cc(-c2ccc(C(C)C)cc2)n1C | 1.25 (≈ 0.391 µg/mL) | 16 | 1.25 | selectivity ratio (in vitro): 13; Activity (HepG2 [8]): 40 µM; Activity (HepG2 [9]): 50 µM; Activity (HepG2 [10]): 40 µM
17 | Cc1c(CN2CCOCC2)cc(-c2ccc(C(C)C)cc2)n1C1CCOCC1 | 2.5 (≈ 0.956 µg/mL) | 50.1 |  | 
18 | Cc1cc(Cl)ccc1-c1cc(CN2CCOCC2)c(C)n1-c1ccc(F)cc1 | 5 (≈ 1.99 µg/mL) | > 100 | > 10 | Activity (HepG2 [8]): > 200 µM; Activity (HepG2 [9]): > 200 µM; Activity (HepG2 [10]): > 200 µM
19 | Cc1c(CN2CCOCC2)cc(-c2ccc(Cl)cn2)n1-c1ccc(F)cc1 | > 125 | > 100 | > 10 | Activity (HepG2 [8]): > 200 µM; Activity (HepG2 [9]): > 200 µM; Activity (HepG2 [10]): > 200 µM
20 | Cc1c(CN2CCOCC2)cc(-c2ccc(Cl)cc2)n1C(C)C | 2.5 (≈ 0.832 µg/mL) |  |  | 

Row | Structure (SMILES) | MIC [1] [µM] | CC50 at 48 h [2] [µM] | IC50 [3] [µM] | also measured
21 | Cc1c(CN2CCOCC2)cc(-c2ccc(C(C)C)cc2)n1C1CCN(C)CC1 | > 5 | 20 | > 10 | 
22 | Cc1c(CN2CCOCC2)cc(-c2ccc(C(F)(F)F)cc2)n1C1CCCCC1 | 1.25 (≈ 0.508 µg/mL) | > 100 |  | selectivity ratio (in vitro): > 167
23 | COCCn1c(-c2ccc(C(C)C)cc2)cc(CN2CCOCC2)c1C | 1.3 (≈ 0.463 µg/mL) | 50.1 | 1.32 | selectivity ratio (in vitro): 39
24 | Cc1c(CN2CCOCC2)cc(-c2ccc(Cl)nc2)n1-c1ccc(F)cc1 | > 5 | 80 | > 10 | 
25 | Cc1c(CN2CCOCC2)cc(-c2ccc(C(C)C)cc2)n1-c1cccc(C(=O)O)c1 | 40 (≈ 16.7 µg/mL) | > 100 |  | 
26 | Cc1c(CN2CCOCC2)cc(-c2ccc(C(C)C)cc2)n1C1COC1 | 2.5 (≈ 0.886 µg/mL) | 80 | 2.5 | Activity (HepG2 [8]): 80 µM; Activity (HepG2 [9]): 100 µM; Activity (HepG2 [10]): 80 µM
27 | Cc1c(CN2CCOCC2)cc(-c2ccc(C(C)C)cc2)n1-c1ccc(F)cn1 | 0.6 (≈ 0.236 µg/mL) | 20 | 0.6 | selectivity ratio (in vitro): 33; Activity (HepG2 [8]): 50 µM; Activity (Albumin): 94.13%; Papp [4]: 64 ×10⁻⁶ cm/s; Activity (HepG2 [9]): 80 µM; solubility kinetic at 1 h [5]: 276 µM (≈ 109 µg/mL); IC50 [6]: 8 µM; Activity (HepG2 [10]): 63 µM; logD [7]: 6.85
28 | Cc1c(CN2CCOCC2)cc(-c2ccc(C(C)C)cc2)n1-c1ncccn1 | 40 (≈ 15.1 µg/mL) | > 100 |  | 
29 | Cc1c(CN2CCOCC2)cc(-c2ccc(C(C)C)cc2)n1CCC(=O)O | > 40 | > 100 |  | 
30 | Cc1c(CN2CCOCC2)cc(-c2ccc(C(C)C)cc2)n1C1CCC1 | 0.08 (≈ 0.0282 µg/mL) | 20 | 0.08 | selectivity ratio (in vitro): 250; Activity (HepG2 [8]): 25 µM; Activity (Albumin): 98.12%; Papp [4]: 55 ×10⁻⁶ cm/s; Activity (HepG2 [9]): 32 µM; solubility kinetic at 1 h [5]: 71 µM (≈ 25 µg/mL); IC50 [6]: 8 µM; Activity (HepG2 [10]): 25 µM; logD [7]: 8.13
31 | Cc1c(CN2CCOCC2)cc(-c2ccc(C(C)C)cc2)n1-c1ccc(N(C)C)cc1 | 1.25 (≈ 0.522 µg/mL) | 16 | 2.5 | selectivity ratio (in vitro): 13
32 | Cc1c(CN2CCOCC2)cc(-c2ccc(C(C)C)cc2)n1[C@@H]1CCCN(C)C1 | > 40 | 25 |  | 
33 | Cc1c(CN2CCOCC2)cc(-c2ccc(C(C)C)cc2)n1CC1CCOCC1 | > 5 | > 100 | 5.28 | 
34 | Cc1c(CN2CCOCC2)cc(-c2ccc(C(F)(F)F)cc2)n1-c1ccc(F)cc1 | 0.6 (≈ 0.251 µg/mL) | > 100 |  | selectivity ratio (in vitro): 167; Activity (Albumin): 98.33%; Papp [4]: 15 ×10⁻⁶ cm/s; solubility kinetic at 1 h [5]: < 1 µM; IC50 [6]: > 50 µM; logD [7]: 7.67
35 | Cc1c(CN2CCOCC2)cc(C2CCCCC2)n1-c1ccc(F)cc1 | > 5 | 50 | > 10 | 
36 | Cc1c(CN2CCOCC2)cc(-c2ccc(C(F)(F)F)cc2)n1C(C)C | 2.5 (≈ 0.916 µg/mL) | 20 |  | 
37 | Cc1c(CN2CCOCC2)cc(-c2ccc(C(C)C)cc2)n1C1CCN(C(=O)OC(C)(C)C)CC1 | > 5 |  | > 10 | 
38 | Cc1c(CN2CCOCC2)cc(-c2ccc(C(C)C)cc2)n1C1CCCN(C(=O)OC(C)(C)C)C1 (single isomer, unassigned) | 30 (≈ 14.5 µg/mL) | 16 |  | 
39 | NNC(=O)c1ccncc1 [ISONIAZID] | 1.8 (≈ 0.247 µg/mL) |  |  | 
